Source: US11013704B2, “Compounds supports hematopoietic stem cells and red blood cells” (The Board of Regents of the University of Texas System, priority 2014, dated 2021)
“Also recorded” adds a separate entry of the source.

Key:
[1] = tested on: Bone marrow CD45.1 Lin-Sca-1+Kit+Flk2-CD34- cells; assay: Ex vivo expansion of mouse bone marrow HSCs, repopulation after transplantation; format: cell-based; details: cultured 8 days, determined by bone marrow transplantation
Protocol: (§1) Mouse BM Lin-Sca-1+Kit+CD34-Flk2-cells were cultured in serum-free Stemspan medium with 10 ng/ml SCF, 20 ng/ml TPO, and indicated concentrations of SA. Cell numbers were counted after 6 days. FIG. 2B The effects of SA on the ex vivo expansion of mouse CD45.1 Percent repopulation of C57BL/6 bone marrow HSCs at 0, 10 nM, 100 nM, and 1 μM for 8 days, measured at 3 weeks, 7 weeks, and 16 weeks post-transplantation. The repopulation of donor mouse CD45.1 HSCs was determined by transplantation into lethally irradiated (1000 rad) CD45.2 C57BL/6 mice. Ten thousand CD45.2 total bone marrow cells were co-transplanted as competitors. n=5. […] The repopulation of human hematopoietic stem cells was determined by transplantation into sublethally irradiated (250 rad) NOD/SCID IL2R gamma^−/− (NSG) mice. n=7.
Bone marrow CD45.1 Lin^−Sca-1^+Kit^+Flk2^−CD34^− cells were isolated from 8-12 week old CD45.1 C57BL/6 mice and were plated into wells of a U-bottom 96-well plate (3799; Corning). StemSpan serum-free medium (StemCell Technologies) supplemented with 10 μg/mL heparin (Sigma), 10 ng/mL mouse SCF (R&D Systems), 20 ng/mL mouse TPO (R&D Systems), and 10 ng/mL human FGF-1 (Invitrogen), and indicated concentration of suberoylarginine was used. Cells were cultured at 37° C. in 5% CO2 and the normal level of O2 for 8 days. […]

[2] = tested on: Mouse bone marrow Lin-Sca-1+Kit+CD34-Flk2-cells; assay: Proliferation of mouse HSCs; format: cell-based; details: serum-free Stemspan, 10 ng/ml SCF, 20 ng/ml TPO, cell numbers after 6 days
Protocol: as §1
Mouse bone marrow Lin-Sca-1+Kit+CD34-Flk2-cells were cultured in serum-free Stemspan medium with 10 ng/ml SCF, 20 ng/ml TPO, and indicated concentrations of SA. Cell numbers were counted after 6 days.

[3] = tested on: human cord blood CD133+ cells; assay: Ex vivo expansion of human cord blood HSCs, repopulation in NSG mice; format: cell-based; details: cord blood CD133+ cells cultured 11 days, 1 μM, 8 weeks post-transplantation
Protocol: as §1
Cryopreserved human cord blood CD133^+ cells were purchased from AllCells. All of cells were from pooled donors. Purities of CD133^+ cells as analyzed by flow cytometry were higher than 90%. After thawing, the cell viability tested by trypan blue exclusion was higher than 72%. […] Eight weeks after transplantation, bone marrow nucleated cells from transplanted animals were analyzed by flow cytometry for the presence of human cells. Total human hematopoietic cells were determined as CD45/71^+, and human myeloid cells as myeloid CD45/71^+CD15/66b^+.

[4] = tested on: Balb/c mice; assay: Toxicity in mice, daily injections for 28 days; format: in vivo, mouse; details: for toxicity: 0.5 and 1.5 mg daily for four weeks (33- and 100-times the effective amount)
Protocol: In this experiment, 8-week-old Balb/c mice were given daily injections of SA at doses of 0, 0.5, and 1.5 mg per mouse for 28 days. The body weight and activities of mice were monitored daily.

[5] = tested on: Balb/c mice; assay: Mouse model of bone marrow failure after chemo- and radio-treatment; format: in vivo
Protocol: (§2) Balb/c mice were first treated with 100 mg/kg acetylphenylhydrazine and, after 24 hours, were irradiated with 2 Gy. Two days post radiation treatment, the mice were treated with 62.5 mg/kg cyclophosphamide (CY). This treatment is known to induce sublethal damage to HSCs and RBCs. Two days after the CY treatment, the mice were given daily intraperitoneal injections of SA for 4 to 14 days; a range of SA concentrations was evaluated. Blood counts were measured at days 0, 4, and 8. Additionally, bone marrow Lin^−Sca-1^+Kit^+CD34^−Flk2^− (LSKFC) cells that are enriched for HSCs and hematopoietic lineages were quantified at day 14.
as §2, with “The inventors tested the effect of SA on HSCs and RBCs in a mouse bone marrow failure model after chemo- and radio-therapy. In this model, Balb/c mice” for “Balb/c mice”, “for HSCs (Christensen and Weissman, 2001) and hematopoietic” for “for HSCs and hematopoietic”

[6] = Stability test in S9 extract; format: in vitro ADME, mouse; details: 2 μM, murine S9, Phase I NADPH cofactors, 0-240 minutes
Protocol: (§3) SA (2 μM) was incubated with murine S9 (Lot KWB) and Phase I NADPH Regenerating System cofactors for 0-240 minutes. SA was quantified using a Qtrap 3200 mass spectrometer. n=3. (FIG. 7B) SA is stable in mouse plasma. 1 μl SA 2 mM DMSO stock was incubated with 1 ml ACD mouse plasma or saline making 2 μM SW125991 working solution. Vortext well and incubate in 37° C. water bath. At time point 0, 10, 30, 60, 120, 240, 1440 min, SA was quantified using a Qtrap 3200 mass spectrometer. n=3.
SA (2 mM in H2O stock, final concentration in mixture is 2 μM) was incubated with Murine S9 (Lot KWB) fraction and Phase I (NADPH Regenerating System) cofactors for 0-240 minutes. Reactions were quenched with 1 mL (1:1) of methanol containing 0.2% formic acid, and 100 ng/ml IS (IS final conc.=10 ng/ml). Samples were vortexed for 15 seconds, incubated at RT for 10 minutes and spun for 5 minutes at 2400 rpm. Supernatant (1 mL) was then transferred to an eppendorf tube and spun in a table top, chilled centrifuge for 5 minutes at 13.2K rpm. Supernatant (800 μl) was transferred to an HPLC vial (w/out insert). Analyzed by Qtrap 3200 mass spectrometer.

[7] = Stability test in plasma; format: in vitro ADME; details: 2 μM, mouse plasma, 37° C., 0-1440 min
Protocol: as §3
1 μl of SA (2 mM DMSO stock) was incubated with 1 ml ACD mouse plasma or saline control to make 2 μM SW125991 working solution. Vortext well and incubate in 37° C. water bath. At time point 0, 10, 30, 60, 120, 240, 1440 min, 100 μl sample was crashed by 200 μl MeOH with IS benzylbenzamide at 15 ng/ml. Centrifuge twice at 13200 rpm for 5 min, and supernatant was injected into LCMS for analysis.

[8] = 0.5 and 1.5 mg per mouse daily for 28 days

## N=C(N)NCCC[C@H](NC(=O)CCCCCCC(=O)O)C(=O)O [SA, suberoyl arginine]
[1]
  ex vivo expansion of mouse HSCs: supports the ex vivo expansion
[2]
  proliferation of mouse HSCs: promoted the proliferation; also recorded: promotes proliferation
[3]
  ex vivo expansion of human HSCs: supports the ex vivo expansion
[4]
  toxicity: did not observe any detectable SA toxicity
[4]; listed as subreoylarginine
  toxicity: no detectable toxicity
[4]; [8]
  body weight: did not significantly alter
  changes in behavior, activity, hematology, serum chemistry, or urinalysis parameters: did not observe any changes
  histological damage to tissues/organs: no damage was observed
[4]; 0.5 and 1.5 mg per mouse daily for 28 days, listed as suberoylarginine
  body weight: No significant change
[5]; 15 μg of SA per mouse (~0.7 mg/kg) per day for 14 days
  increase of phenotypic bone marrow HSCs: ~40%
[5]; day 8
  increase of hematocrit relative to animals not treated: 25-30%
  increase of hemoglobin relative to animals not treated: 25-30%
  increase of level of RBCs relative to animals not treated: 25-30%
[5]; iv or intraperitoneal (ip) administration
  stimulation of hematopoietic recovery by route: works efficiently
[5]; same mouse model, SA 15 μg, EPO 120 U/kg
  effect on RBC recovery compared with EPO: comparable to that of EPO
[6]
  metabolic stability in S9 liver fractions: metabolically stable
[7]
  stability in plasma: metabolically stable
